Experimental findings from US20200297798A1, “KEY AMINO ACID SITES […] EXPORT OF NUC[…] INFLUENZA A AND B VIRUSES AND USE THEREOF AS ANTI-INFLUENZA VIRUS DRUG TARGETS” (INSTITUTE OF MICROBIOLOGY, CHINESE ACADEMY OF SCIENCES, priority 2017, published 2020) are described below.

One experiment deals with ANP Y148F (Influenza A virus, UniProt P15682, Y148F).
For another experiment, the target named is BNP F209A (Influenza B virus, UniProt P04665, F209A).

For the compound `COc1ccc2cc(C(C)C(=O)O)ccc2c1` (stereo not drawn) [naproxen, (+) α-methyl-6-methoxy-2-naphthaleneacetic acid], on ANP Y148F, the “n (stoichiometry)” value came to 0.10, the ΔH is -10.92 kcal/mol and the ΔS is recorded as −83.45 J/mol · K. Moreover, on BNP F209A, the “n (stoichiometry)” value is 1.68, the ΔH is -0.167 kcal/mol and the ΔS stood at 102.6 J/mol · K.
